Molecule N=C(NCCCCN1CCC(CCCC(N)=O)CC1)NC(=O)c1nc(Cl)c(N)nc1N [Example 1, 4-(1-{4-[N′-(3,5-diamino-6-chloropyrazine-2-carbonyl)guanidino]-butyl}piperidin-4-yl)butyramide] has a melting point of 143 to 147 °C.

— patent US8143256B2, “Cyclic amide and ester pyrazinoylguanidine sodium channel blockers” (Parion Sciences, Inc., priority 2004, dated 2012)
